This is an account of results in US20230180804A1, “FLAVOR COMPOSITION, AND FOOD AND BEVERAGE” (TAKASAGO INTERNATIONAL CORPORATION, priority 2020, published 2023).

A short description of test [1]: Sensory evaluation of p-cresol odor masking in p-cresol-containing citrus-flavored beverage. Particulars: for p-Cresol Odor Intensity: beverage with 50 ppb p-cresol, average score of 7 panelists, scale 0-4; for concentration at which the compound masks the p-cresol odor and does not affect the citrus flavor, lower limit / concentration at which the compound masks the p-cresol odor and does not affect the citrus flavor, upper limit: citrus-flavored beverage with 50 ppb p-cresol. The method, then: To 2 g of lemon flavor obtained by making lemon oil into an essence, purified water was added to adjust the total amount to 1000 ml. To this citrus-flavored beverage, p-cresol adjusted to a concentration of 1% by mass with 95% ethanol was added to 50 ppb in the citrus-flavored beverage. To this p-cresol-containing citrus-flavored beverage, 1-oxacycloheptadecan-7-en-2-one was added at the concentrations presented in Table 1 to confirm the p-cresol odor intensity (masking effect) and the influence on the citrus flavor of each sample.
For the test, seven skilled panelists were selected to perform sensory evaluation. The p-cresol odor intensity of the p-cresol-containing citrus-flavored beverage without added l-oxacycloheptadecan-7-en-2-one was determined as “Rating: 4,” and the p-cresol odor intensity of the p-cresol-free citrus-flavored beverage was determined as “Rating: 0,” and the p-cresol odor intensity (masking effect) of each sample was relatively evaluated according to the following evaluation criteria.
In addition, the influence of the citrus-flavored beverage on the citrus flavor was evaluated absolutely according to the following evaluation criteria for the presence or absence of off- flavor other than p-cresol odor and citrus flavor (Off-Flavor Intensity).
The results are as in Table 1, presenting the average score of the evaluation results for each panelist.

Test [2] in a line: Sensory evaluation of p-cresol odor masking in p-cresol-containing citrus-flavored confectionery (tablet). To be noted: for p-Cresol Odor Intensity: tablet with 200 ppb p-cresol, average score of 6 panelists, scale 0-4; for concentration at which the compound masks the p-cresol odor and does not affect the citrus flavor, lower limit / concentration at which the compound masks the p-cresol odor and does not affect the citrus flavor, upper limit: citrus-flavored confectionery (tablet) with 200 ppb p-cresol. On the procedure: Lemon cold-pressed oil was added to the tablet having the composition presented in Table A at a concentration of 1 % by mass, and medium chain fatty acid triglycerides (MCT) was used to adjust p-cresol to a concentration of 0.1%, which was further added so as to reach 200 ppb in the citrus flavored confectionery. To this p-cresol-containing citrus-flavored confectionery, 1-oxacycloheptadecan-7-en-2-one was added at the concentrations presented in Table 12, and then tableting was performed to confirm the p-cresol odor intensity (masking effect) and the influence on the citrus flavor of each sample.
Six skilled panelists were selected to perform the same sensory evaluation as in Example 1. The results are as in Table 12, presenting the average score of the evaluation results for each panelist.

Test [3] in a line: Sensory evaluation of p-cresol odor masking in p-cresol-containing grated raw ginger. Particulars: for p-Cresol Odor Intensity: grated ginger with 600 ppb p-cresol, average score of 9 panelists, scale 0-4. The method, then: To commercially available grated raw ginger, p-cresol adjusted to a concentration of 0.1% with 95% ethanol was added to a concentration of 600 ppb in the ginger. To this p-cresol-containing ginger, 1-oxacycloheptadecan-8-en-2-one was added at the concentrations presented in Table 16 to confirm the p-cresol odor intensity (masking effect) and the influence on the ginger flavor of each sample.
Nine skilled panelists were selected to perform the same sensory evaluation as in Example 1. The results are as in Table 16, presenting the average score of the evaluation results for each panelist.

The nature of test [4]: Sensory evaluation of p-cresol odor masking in p-cresol-containing lemon dressing. To be noted: lemon dressing with 500 ppb p-cresol; for p-Cresol Odor Intensity: average score of 9 panelists, scale 0-4. The method, then: To a commercially available lemon dressing, p-cresol adjusted to a concentration of 0.1% with 95% ethanol was added to 500 ppb in the lemon dressing. To this p-cresol-containing lemon dressing, l-oxacycloheptadecan-8-en-2-one was added at the concentrations presented in Table 18 to confirm the p-cresol odor intensity (masking effect) and the influence on the citrus flavor of each sample.
Nine skilled panelists were selected to perform the same sensory evaluation as in Example 1. The results are as in Table 18, presenting the average score of the evaluation results for each panelist.

In another test the target is T1, olfactory receptor OR9Q2 (Homo sapiens, UniProt Q8NGE9).
T1 construct: 20 N-terminal amino acid residues of bovine rhodopsin (Rho tag); expressed in transfected cells; host or cells: HEK293T
T1 sequence (Q8NGE9 1-314): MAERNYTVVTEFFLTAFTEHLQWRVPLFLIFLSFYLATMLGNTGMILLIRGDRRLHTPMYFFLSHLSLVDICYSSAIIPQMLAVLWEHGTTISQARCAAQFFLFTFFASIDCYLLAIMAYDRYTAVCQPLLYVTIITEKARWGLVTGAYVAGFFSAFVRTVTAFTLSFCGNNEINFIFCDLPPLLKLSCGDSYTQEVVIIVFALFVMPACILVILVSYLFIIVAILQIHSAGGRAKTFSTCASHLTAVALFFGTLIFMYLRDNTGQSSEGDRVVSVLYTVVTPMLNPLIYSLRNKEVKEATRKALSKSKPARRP
The test can be described thus: OR9Q2 response inhibitory effect for p-cresol, luciferase reporter gene assay. Type of test: cell-based. To be noted: p-cresol 100 µM mixed with various concentrations of compound; cells expressing OR9Q2; ratio of Fold Increase value (FIGS. 1 to 11). The method, then:
The human olfactory receptor gene was obtained by cloning from Human Genomic DNA: Female (Promega) by PCR method based on the sequence information registered in GenBank. The 20 N-terminal amino acid residues of bovine rhodopsin were incorporated into the pME18S vector, and the obtained human olfactory receptor gene was incorporated downstream thereof to obtain a human olfactory receptor gene expression vector.
In 10 µL of Opti-MEM I (gibco), 0.05 µg of human olfactory receptor gene expression vector, 0.01 µg of RTP1S vector, 0.01 µg firefly luciferase vector pGL4.29 (Promega) containing cAMP response element promoter, and 0.005 µg of Renilla luciferase vector pGL4.74 (Promega) containing thymidine kinase promoter were dissolved to prepare a gene solution (for one well). HEK293T cells were seeded at 100 µL each in a 96-well plate (Biocoat, Coming) at the number of cells reaching confluence after 24 hours, and a gene solution was added to each well by the lipofection method according to the usage of Lipofectamine 3000 to introduce genes into the cells, and the cells were cultured at 37° C. in a 5% carbon dioxide atmosphere for 24 hours.
After removing the culture medium, the resultant was prepared with CD293 (gibco) medium ([…] added) so as to have a concentration for measuring the aroma substance to be tested, 50 µL of which was added each and stimulated for 3 hours, and then luciferase activity was measured according to the method of using the Dual-Luciferase Reporter Assay System (Promega). The response intensity of the olfactory receptor polypeptide was expressed as a Fold Increase value obtained by dividing the luciferase activity produced by stimulating the aroma substance by the luciferase activity produced in the test system containing no aroma substance.
p-Cresol at 100 µM was mixed with various concentrations of 1-oxacycloheptadecan-7-en-2-one, 1-oxacycloheptadecan-8-en-2-one, isoambrettolide, pentalide, muscone, civetone, 8-2-decenolactone, cinnamic aldehyde, […], sclareolide, and ethyl maltol, and receptor responses were measured in cells expressing OR9Q2. The ratio of the Fold Increase value in the test in which each compound was mixed was calculated, where the Fold Increase value in the test in none of these compounds was mixed was set to 100. FIGS. 1 to 11 present the results.

[5] abbreviates: grated raw ginger with 600 ppb p-cresol.

On to `O=C1CCCCC=CCCCCCCCCCO1` [1-Oxacycloheptadecan-7-En-2-One, 1-oxacycloheptadecan-7-en-2-one], for which the “p-Cresol Odor Intensity” value in test [1] (0.01 ppt added) was found to be 3.7 points; in test [1] (0.1 ppt added), 2.7 points; in test [1] (1 ppb added) it was 1.3 points; in test [1] (1 ppt added) it was 2.4 points; in test [1] (10 ppb added) it was 0.9 points; in test [1] (10 ppt added), 2.0 points. The “p-Cresol Odor Intensity” value is given as 0.7 points in test [1] (100 ppb added); 1.7 points in test [1] (100 ppt added); 2.5 points in test [2] (4 ppb added); 2.0 points in test [2] (40 ppb added); 3.2 points in test [2] (40 ppt added); 1.3 points in test [2] (400 ppb added). Moreover, the “p-Cresol Odor Intensity” value in test [2] (400 ppt added) was determined as 2.7 points. Besides, the “concentration at which the compound masks the p-cresol odor and does not affect the citrus flavor, lower limit” value is listed as at least 0.1 ppt in test [1] and at least 400 ppt in test [2]. Also, the entries for the “concentration at which the compound masks the p-cresol odor and does not affect the citrus flavor, upper limit” value in test [1] and in test [2] were at most 1 ppb and at most 400 ppb, respectively.

Regarding `O=C1CCCCCC=CCCCCCCCCO1` [1-Oxacycloheptadecan-8-En-2-One, 1-oxacycloheptadecan-8-en-2-one], the “p-Cresol Odor Intensity” value in test [3] (1 ppb added) is listed as 1.7 points; in test [3] (1 ppt added), 3.2 points; in test [3] (10 ppb added), 1.4 points; in test [3] (10 ppt added), 2.4 points; in test [3] (100 ppt added) it was 2.3 points; in test [1] (0.01 ppt added), 3.6 points. For the same compound, the “p-Cresol Odor Intensity” value in test [1] (0.1 ppt added) is 2.9 points; in test [1] (1 ppb added) it was 1.1 points; in test [1] (1 ppt added) it was 2.6 points; in test [1] (10 ppb added), 0.7 points; in test [1] (10 ppt added), 1.9 points; in test [1] (100 ppb added), 0.4 points. In addition, the “p-Cresol Odor Intensity” value is listed as 1.4 points in test [1] (100 ppt added); 2.5 points in test [2] (4 ppb added); 1.8 points in test [2] (40 ppb added); 3.3 points in test [2] (40 ppt added); 1.7 points in test [2] (400 ppb added); 3.2 points in test [2] (400 ppt added). Further, the “p-Cresol Odor Intensity” value in test [4] (1 ppb added) amounted to 1.1 points; in test [4] (1 ppt added), 2.9 points; in test [4] (10 ppb added), 1.0 points; in test [4] (10 ppt added), 2.2 points; in test [4] (100 ppt added), 1.6 points. Moreover, in test [3] (setting [5]), the “concentration at which the compound masks the p-cresol odor and does not affect the ginger flavor, lower limit” value is reported as at least 10 ppt. Also, the “concentration at which the compound masks the p-cresol odor and does not affect the ginger flavor, upper limit” value in test [3] (setting [5]) is listed as at most 1 ppb. In addition, the “concentration at which the compound masks the p-cresol odor and does not affect the citrus flavor, lower limit” value in test [1] is given as at least 0.1 ppt; in test [2], at least 4 ppb; in test [4], at least 1 ppt. Moreover, the “concentration at which the compound masks the p-cresol odor and does not affect the citrus flavor, upper limit” value in test [1] is at most 1 ppb; in test [2], at most 400 ppb; in test [4], at most 10 ppb.

Regarding `O=C/C=C/c1ccccc1` [Cinnamic Aldehyde, cinnamic aldehyde], the “effect of suppressing the response of OR9Q2 to p-cresol” value at olfactory receptor OR9Q2 is reported as “suppressing the response of OR9Q2 to p-cresol in a concentration-dependent manner”. Also, the “p-Cresol Odor Intensity” value in test [1] (1 ppb added) was 2.3 points; in test [1] (1 ppm added), 1.7 points; in test [1] (10 ppb added), 2.0 points; in test [1] (10 ppm added), 0.9 points; in test [1] (10 ppt added), 3.9 points; in test [1] (100 ppb added), 2.0 points. Moreover, the figures for the “p-Cresol Odor Intensity” value in test [1] (100 ppm added) and in test [1] (100 ppt added) were 0.6 points and 2.7 points, respectively. Also, in test [1], the “concentration at which the compound masks the p-cresol odor and does not affect the citrus flavor, lower limit” value was at least 100 ppt. Further, the “concentration at which the compound masks the p-cresol odor and does not affect the citrus flavor, upper limit” value in test [1] is at most 10 ppm.

Consider ambrettolide, for which the “effect of suppressing the response of OR9Q2 to p-cresol” value on olfactory receptor OR9Q2 is “suppressing the response of OR9Q2 to p-cresol in a concentration-dependent manner”.
